Assays:
Type in all cases: functional
NCI-H522 = assay: Growth inhibition of human NCI-H522 cells at 10^-5 M incubated for 48 hrs by sulforhodamine B assay; details: NCI-H522, 48 h, read-out: GI
NCI/ADR-RES = assay: Growth inhibition of human NCI/ADR-RES cells at 10^-5 M incubated for 48 hrs by sulforhodamine B assay; details: read-out: GI
T47D = assay: Growth inhibition of human T47D cells at 10^-5 M incubated for 48 hrs by sulforhodamine B assay; details: read-out: GI
SNB-75 = assay: Growth inhibition of human SNB75 cells at 10^-5 M incubated for 48 hrs by sulforhodamine B assay; details: SNB-75, 48 h, read-out: GI
Hs-578T = assay: Growth inhibition of human Hs 578T cells at 10^-5 M incubated for 48 hrs by sulforhodamine B assay; details: read-out: GI
786-0 = assay: Growth inhibition of human 786-0 cells at 10^-5 M incubated for 48 hrs by sulforhodamine B assay; details: 786-0, 48 h, read-out: GI
MOLT-4 = assay: Growth inhibition of human MOLT4 cells at 10^-5 M incubated for 48 hrs by sulforhodamine B assay; details: MOLT-4, 48 h, read-out: GI
MCF7 = assay: Growth inhibition of human MCF7 cells at 10^-5 M incubated for 48 hrs by sulforhodamine B assay; details: MCF7, 48 h, read-out: GI
SK-MEL-5 = assay: Growth inhibition of human SK-MEL-5 cells at 10^-5 M incubated for 48 hrs by sulforhodamine B assay; details: SK-MEL-5, 48 h, read-out: GI
MDA-MB-231 = assay: Growth inhibition of human MDA-MB-231 cells at 10^-5 M incubated for 48 hrs by sulforhodamine B assay; details: MDA-MB-231, 48 h, read-out: GI
NCI-H322M = assay: Growth inhibition of human NCI-H322M cells at 10^-5 M incubated for 48 hrs by sulforhodamine B assay; details: read-out: GI
HCT-116 = assay: Growth inhibition of human HCT116 cells at 10^-5 M incubated for 48 hrs by sulforhodamine B assay; details: HCT-116, 48 h, read-out: GI
OVCAR-8 = assay: Growth inhibition of human OVCAR8 cells at 10^-5 M incubated for 48 hrs by sulforhodamine B assay; details: OVCAR-8, 48 h, read-out: GI
UACC-62 = assay: Growth inhibition of human UACC62 cells at 10^-5 M incubated for 48 hrs by sulforhodamine B assay; details: UACC-62, 48 h, read-out: GI
SN12C = assay: Growth inhibition of human SN12C cells at 10^-5 M incubated for 48 hrs by sulforhodamine B assay; details: read-out: GI
NCI-H23 = assay: Growth inhibition of human NCI-H23 cells at 10^-5 M incubated for 48 hrs by sulforhodamine B assay; details: NCI-H23, 48 h, read-out: GI
SK-MEL-28 = assay: Growth inhibition of human SK-MEL-28 cells at 10^-5 M incubated for 48 hrs by sulforhodamine B assay; details: SK-MEL-28, 48 h, read-out: GI
A498 = assay: Growth inhibition of human A498 cells at 10^-5 M incubated for 48 hrs by sulforhodamine B assay; details: A498, 48 h, read-out: GI
SR = assay: Growth inhibition of human SR cells at 10^-5 M incubated for 48 hrs by sulforhodamine B assay; details: read-out: GI
DU-145 = assay: Growth inhibition of human DU145 cells at 10^-5 M incubated for 48 hrs by sulforhodamine B assay; details: DU-145, 48 h, read-out: GI
SF-268 = assay: Growth inhibition of human SF268 cells at 10^-5 M incubated for 48 hrs by sulforhodamine B assay; details: SF-268, 48 h, read-out: GI
Malme-3M = assay: Growth inhibition of human MALME-3M cells at 10^-5 M incubated for 48 hrs by sulforhodamine B assay; details: read-out: GI
HCT-15 = assay: Growth inhibition of human HCT15 cells at 10^-5 M incubated for 48 hrs by sulforhodamine B assay; details: HCT-15, 48 h, read-out: GI
HL-60(TB) = assay: Growth inhibition of human HL-60(TB) cells at 10^-5 M incubated for 48 hrs by sulforhodamine B assay; details: HL-60, 48 h, read-out: GI
LOX IMVI = assay: Growth inhibition of human LOXIMVI cells at 10^-5 M incubated for 48 hrs by sulforhodamine B assay; details: read-out: GI
OVCAR-3 = assay: Growth inhibition of human OVCAR3 cells at 10^-5 M incubated for 48 hrs by sulforhodamine B assay; details: OVCAR-3, 48 h, read-out: GI
TK-10 = assay: Growth inhibition of human TK10 cells at 10^-5 M incubated for 48 hrs by sulforhodamine B assay; details: TK-10, 48 h, read-out: GI
ACHN = assay: Growth inhibition of human ACHN cells at 10^-5 M incubated for 48 hrs by sulforhodamine B assay; details: read-out: GI
SK-OV-3 = assay: Growth inhibition of human SKOV3 cells at 10^-5 M incubated for 48 hrs by sulforhodamine B assay; details: SK-OV-3, 48 h, read-out: GI
M14 = assay: Growth inhibition of human M14 cells at 10^-5 M incubated for 48 hrs by sulforhodamine B assay; details: M14, 48 h, read-out: GI
RXF 393 = assay: Growth inhibition of human RXF393 cells at 10^-5 M incubated for 48 hrs by sulforhodamine B assay; details: RXF 393, 48 h, read-out: GI
CCRF-CEM = assay: Growth inhibition of human CCRF-CEM cells at 10^-5 M incubated for 48 hrs by sulforhodamine B assay; details: read-out: GI
SNB-19 = assay: Growth inhibition of human SNB19 cells at 10^-5 M incubated for 48 hrs by sulforhodamine B assay; details: SNB-19, 48 h, read-out: GI
NCI-H460 = assay: Growth inhibition of human NCI-H460 cells at 10^-5 M incubated for 48 hrs by sulforhodamine B assay; details: NCI-H460, 48 h, read-out: GI
SW-620 = assay: Growth inhibition of human SW620 cells at 10^-5 M incubated for 48 hrs by sulforhodamine B assay; details: SW-620, 48 h, read-out: GI
SF-295 = assay: Growth inhibition of human SF295 cells at 10^-5 M incubated for 48 hrs by sulforhodamine B assay; details: SF-295, 48 h, read-out: GI
OVCAR-5 = assay: Growth inhibition of human OVCAR5 cells at 10^-5 M incubated for 48 hrs by sulforhodamine B assay; details: OVCAR-5, 48 h, read-out: GI
IGROV-1 = assay: Growth inhibition of human IGROV1 cells at 10^-5 M incubated for 48 hrs by sulforhodamine B assay; details: IGROV-1, 48 h, read-out: GI
A549 = assay: Growth inhibition of human A549/ATCC cells at 10^-5 M incubated for 48 hrs by sulforhodamine B assay; details: A549, 48 h, read-out: GI

| SMILES | inhibition of growth at 10 µM (NCI-H522) | inhibition of growth at 10 µM (NCI/ADR-RES) | inhibition of growth at 10 µM (T47D) | inhibition of growth at 10 µM (SNB-75) | inhibition of growth at 10 µM (Hs-578T) | inhibition of growth at 10 µM (786-0) | inhibition of growth at 10 µM (MOLT-4) | inhibition of growth at 10 µM (MCF7) | inhibition of growth at 10 µM (SK-MEL-5) | inhibition of growth at 10 µM (MDA-MB-231) | inhibition of growth at 10 µM (NCI-H322M) | inhibition of growth at 10 µM (HCT-116) | inhibition of growth at 10 µM (OVCAR-8) | inhibition of growth at 10 µM (UACC-62) | inhibition of growth at 10 µM (SN12C) | inhibition of growth at 10 µM (NCI-H23) | inhibition of growth at 10 µM (SK-MEL-28) | inhibition of growth at 10 µM (A498) | inhibition of growth at 10 µM (SR) | inhibition of growth at 10 µM (DU-145) | also measured |
| --- | --- | --- | --- | --- | --- | --- | --- | --- | --- | --- | --- | --- | --- | --- | --- | --- | --- | --- | --- | --- | --- |
| O=[N+]([O-])c1cccc(C2c3sc4ccc(Cl)cc4c3N=C3NN=CN32)c1 (stereo not drawn) | 1.55% | 6.44% | -3.72% | -4.8% | -18.1% | 5.64% | 0.47% | 16.9% | 5.85% | 5.59% | 5.8% | 3.22% | 1.42% | 3.57% | -37.5% | 17.7% | -17.9% | 22.4% | 4.93% | 28.2% | inhibition of growth at 10 µM (SF-268): 4.21%; inhibition of growth at 10 µM (Malme-3M): -2.71%; inhibition of growth at 10 µM (HCT-15): -1.1%; inhibition of growth at 10 µM (HL-60(TB)): -6.74%; inhibition of growth at 10 µM (LOX IMVI): 6.72%; inhibition of growth at 10 µM (OVCAR-3): -0.5%; inhibition of growth at 10 µM (TK-10): 39%; inhibition of growth at 10 µM (ACHN): 22%; inhibition of growth at 10 µM (SK-OV-3): -4.54%; inhibition of growth at 10 µM (M14): -2.02%; inhibition of growth at 10 µM (RXF 393): 1.71%; inhibition of growth at 10 µM (CCRF-CEM): -13.4%; inhibition of growth at 10 µM (SNB-19): 1.87%; inhibition of growth at 10 µM (NCI-H460): 2.77%; inhibition of growth at 10 µM (SW-620): 5.16%; inhibition of growth at 10 µM (SF-295): -3.63%; inhibition of growth at 10 µM (OVCAR-5): -1.09%; inhibition of growth at 10 µM (IGROV-1): -11.9%; inhibition of growth at 10 µM (A549): -0.61% |
| O=C1CC(=O)N(C2=Nc3c(sc4ccc(Cl)cc34)C(c3cccc([N+](=O)[O-])c3)N2)N1 (stereo not drawn) | 9.63% | -2.89% | 20.9% | 8.27% | 5.51% | -4.83% | -4.64% | 21.7% | 5.38% | 11.8% | 2.7% | 0.7% | -4.71% | 8.04% | 18.3% | 14.7% | -19.8% | 6.96% | -3.11% | -15.1% | inhibition of growth at 10 µM (SF-268): -5.71%; inhibition of growth at 10 µM (Malme-3M): -4.33%; inhibition of growth at 10 µM (HCT-15): -3.4%; inhibition of growth at 10 µM (HL-60(TB)): -8%; inhibition of growth at 10 µM (LOX IMVI): 2.94%; inhibition of growth at 10 µM (OVCAR-3): -6.5%; inhibition of growth at 10 µM (TK-10): -11.9%; inhibition of growth at 10 µM (ACHN): -11.9%; inhibition of growth at 10 µM (SK-OV-3): 1.27%; inhibition of growth at 10 µM (M14): -11.3%; inhibition of growth at 10 µM (RXF 393): 10.9%; inhibition of growth at 10 µM (CCRF-CEM): -32.1%; inhibition of growth at 10 µM (SNB-19): -9.31%; inhibition of growth at 10 µM (NCI-H460): 2.81%; inhibition of growth at 10 µM (SW-620): -6.45%; inhibition of growth at 10 µM (SF-295): 0.3%; inhibition of growth at 10 µM (OVCAR-5): -2.6%; inhibition of growth at 10 µM (IGROV-1): 20.8%; inhibition of growth at 10 µM (A549): -4.87% |

— ChEMBL document CHEMBL4414672, “Synthesis of certain benzothieno[3,2-d]pyrimidine derivatives as a selective SIRT2 inhibitors” (Eur J Med Chem, 2020)
